Reference: patent US7355004B2, “Protein lipase inhibitor for flour and dough” (Danisco A/S, priority 2002, dated 2008)

Assays:
commercial lipase #1646 = assay: p-Nitrophenol-acetate assay, determination of Km for another commercial lipase (#1646); type: biochemical; conditions: pH 6.5, 50 mM phosphate buffer, 30° C., 405 nm; substrate 0.1 to 0.75 mg/ml; fit to non-competitive kinetics not accepted
Experimental: (§1) Lipase activity was determined colorimetrically using p-nitrophenyl acetate as a substrate. In a microtiter plate was added 10 μl of sample or blank then 250 μl of substrate was added (0.5 mg p-nitrophenyl acetate/ml of 50 mM phosphate buffer, pH 6.5). The microtiterplate was incubated for 5 min. at 30° C. and the absorbance at 405 nm was then read in a microplate reader.
Kinetic data were fitted to v=VmaxS/(Km+S) where Vmax is maximum velocity, S is substrate concentration, and Km is the concentration giving half maximal rate (Michaelis constant), using the EZ-FIT curve-fitting microcomputer program [Perrella, (1988) EZ-FIT: A practical curve-fitting microcomputer program for the analysis of enzyme kinetic data on IBM-PC compatible computers. Anal. Biochem. 174: 437-447]. To determine Ki the data were fitted to the formulas for non-competitive, competitive, un-competitive and the model showing the best fit (non-competitive) were used to determine Ki. The program uses the Nelder-Mead simplex optimization of initial guesses followed by Marquardt nonlinear regression algorithm for least squares optimization. Run's statistic is used to determine if the fitted curve goes through the data points or whether a systematic departure from the curve exists. The fitted parameter values and standard error are tested for significance by the Student t test.

[1] = system: purified Lipase 3 from Aspergillus niger; assay: p-Nitrophenol-acetate assay, determination of Km for purified Lipase 3; type: biochemical
Experimental: as §1
A 60 ml sample of Grindlipase (Danisco A/S) a ferment of Aspergillus niger, pH 5.5 was first filtered through GF/B filter and then through 0.45 μm filter. The filtered sample was then desalted on a Superdex G25 SP column (430 ml, 22×5 cm) equilibrated in 20 mM triethanolamin, pH 7.3. Flow 5 ml/min. The total volume after desalting was 150 ml.
The desalted sample was applied to a Source Q30 anion exchange column (100 ml, 5×5 cm) equilibrated in 20 mM triethanolamine, pH 7.3. The column was washed with equilibration buffer until a stable baseline was obtained. Lipase activity was then eluted with a 420 ml linear gradient from 0 to 0.35 M NaCl in equilibration buffer, flow […]. Fractions of 10 ml were collected. […]
To the pool from anion exchange was added ammonium sulfate to 1 M and the sample was applied to a Source Phenyl HIC column (20 ml, 10 x 2 cm) equilibrated in 20 mM sodium-acetate (pH 5.5), 1M (NH4)2SO4. […] Fractions 33-41 were analyzed by SDS-PAGE and fraction 40 and 41 contained pure lipase. […]

CC(=O)Oc1ccc([N+](=O)[O-])cc1 [p-nitrophenyl acetate]
Km for p-nitrophenyl acetate (commercial lipase #1646): 2.0 ± 0.6 mg/mL | Km for p-nitrophenyl acetate ([1]; pH 6.5, 50 mM phosphate buffer, 30° C., 405 nm, four levels of lipase inhibitor, fit to non-competitive model): 0.67 ± 0.04 mg/mL | Km for lipase with respect to p-nitrophenyl acetate (in words) ([1]; under the conditions in the assay): higher than the maximum solubility for p-nitrophenyl acetate
